Structures are written as SMILES.

This is an account of results in paper PMC4620497 (Scientific Reports, 2015).

The target of assay [1] is T1, PAK2 (Homo sapiens, UniProt Q13177).
T1 construct: purchased DiscoveRx KINOMEscan (Ambit Biosciences)
Further details: method as in earlier work. The settings on record: Table S1; cited from earlier work.

In assay [2] the target is T2, NEK7 (Homo sapiens, UniProt Q8TDX7).
T2 construct: purchased DiscoveRx KINOMEscan (Ambit Biosciences)
Nature of the assay: KINOMEscan panel screen. The format is binding. The settings on record: read-out: Percent Control(%).

Assay [3] addresses T3, RPS6KA5(Kin.Dom.2-C-terminal) (Homo sapiens, UniProt O75582).
T3 construct: RPS6KA5(Kin.Dom.2-C-terminal); purchased DiscoveRx KINOMEscan (Ambit Biosciences)
Nature of the assay: KINOMEscan panel screen. The settings on record: read-out: Percent Control(%). It counts as binding.

The target in assay [4] is T4, IRAK3 (Homo sapiens, UniProt Q9Y616).
T4 construct: purchased DiscoveRx KINOMEscan (Ambit Biosciences)
As to the kind of experiment: KINOMEscan panel screen. The format is binding. The following applies: read-out: Percent Control(%).

The target of assay [5] is T5, MYO3B (Homo sapiens, UniProt Q8WXR4).
T5 construct: purchased DiscoveRx KINOMEscan (Ambit Biosciences)
Nature of the assay: KINOMEscan panel screen. The format is binding. The following applies: read-out: Percent Control(%).

In assay [6] the test system is FLT3(ITD). Nature of the assay: KINOMEscan panel screen. The settings on record: 10 μM. The format is binding, human.
In assay [7] the target is T6, NDR2 (Homo sapiens, UniProt Q9Y2H1).
T6 construct: purchased DiscoveRx KINOMEscan (Ambit Biosciences)
Nature of the assay: KINOMEscan panel screen. The format is binding. The settings on record: read-out: Percent Control(%).

Assay [8] deals with T7, RIPK5 (Homo sapiens, UniProt Q6XUX3).
T7 construct: purchased DiscoveRx KINOMEscan (Ambit Biosciences)
Nature of the assay: KINOMEscan panel screen. The format is binding. The settings on record: read-out: Percent Control(%).

The target of assay [9] is T8, PIK3C2G (Homo sapiens, UniProt O75747).
T8 construct: purchased DiscoveRx KINOMEscan (Ambit Biosciences)
As to the kind of experiment: KINOMEscan panel screen. The settings on record: read-out: Percent Control(%). The format is binding.

The target in assay [10] is T9, JNK1 (Homo sapiens, UniProt P45983).
T9 construct: purchased DiscoveRx KINOMEscan (Ambit Biosciences)
Nature of the assay: KINOMEscan panel screen. It counts as binding. The following applies: read-out: Percent Control(%).

For assay [11], the system named is PC-9. As to the kind of experiment: MTT cell viability assay. The settings on record: Homo sapiens, PC-9, 72 h. (Tetrazolium assays rely on reduction of a dye to a coloured formazan, in cell work by metabolically active cells.)
Assay [12] deals with T10, TAOK3 (Homo sapiens, UniProt Q9H2K8).
T10 construct: purchased DiscoveRx KINOMEscan (Ambit Biosciences)
As to the kind of experiment: KINOMEscan panel screen. It counts as binding. The settings on record: read-out: Percent Control(%).

Assay [13] deals with T11, GRK1 (Homo sapiens, UniProt Q15835).
T11 construct: purchased DiscoveRx KINOMEscan (Ambit Biosciences)
Nature of the assay: KINOMEscan panel screen. It counts as binding. The following applies: read-out: Percent Control(%).

The target in assay [14] is T12, CLK4 (Homo sapiens, UniProt Q9HAZ1).
T12 construct: purchased DiscoveRx KINOMEscan (Ambit Biosciences)
As to the kind of experiment: KINOMEscan panel screen. It counts as binding. The settings on record: read-out: Percent Control(%).

In assay [15] the target is T13, AURKB (Homo sapiens, UniProt Q96GD4).
T13 construct: purchased DiscoveRx KINOMEscan (Ambit Biosciences)
As to the kind of experiment: KINOMEscan panel screen. It counts as binding. The following applies: read-out: Percent Control(%).

Assay [16] has as its target ERBB2 (Homo sapiens, UniProt P04626). As to the kind of experiment: KINOMEscan kinase binding assay (Kd).
Assay [17] deals with T14, FAK (Homo sapiens, UniProt Q05397).
T14 construct: purchased DiscoveRx KINOMEscan (Ambit Biosciences)
Nature of the assay: KINOMEscan panel screen. The following applies: read-out: Percent Control(%). It counts as binding.

Assay [18] deals with T15, RIPK4 (Homo sapiens, UniProt P57078).
T15 construct: purchased DiscoveRx KINOMEscan (Ambit Biosciences)
As to the kind of experiment: KINOMEscan panel screen. The format is binding. The settings on record: read-out: Percent Control(%).

Assay [19] addresses T16, MAST1 (Homo sapiens, UniProt Q9Y2H9).
T16 construct: purchased DiscoveRx KINOMEscan (Ambit Biosciences)
As to the kind of experiment: KINOMEscan panel screen. The format is binding. The following applies: read-out: Percent Control(%).

In assay [20] the target is T17, BMPR1B (Homo sapiens, UniProt O00238).
T17 construct: purchased DiscoveRx KINOMEscan (Ambit Biosciences)
Nature of the assay: KINOMEscan panel screen. The settings on record: read-out: Percent Control(%). It counts as binding.

The target in assay [21] is T18, ABL1-phosphorylated (Homo sapiens, UniProt P00519).
T18 construct: purchased DiscoveRx KINOMEscan (Ambit Biosciences)
Nature of the assay: KINOMEscan panel screen. The settings on record: read-out: Percent Control(%). The format is binding.

Assay [22] addresses T19, HUNK (Homo sapiens, UniProt P57058).
T19 construct: purchased DiscoveRx KINOMEscan (Ambit Biosciences)
Nature of the assay: KINOMEscan panel screen. It counts as binding. The settings on record: read-out: Percent Control(%).

For assay [23], the target named is T20, DLK (Homo sapiens, UniProt Q12852).
T20 sequence (Q12852 1-859): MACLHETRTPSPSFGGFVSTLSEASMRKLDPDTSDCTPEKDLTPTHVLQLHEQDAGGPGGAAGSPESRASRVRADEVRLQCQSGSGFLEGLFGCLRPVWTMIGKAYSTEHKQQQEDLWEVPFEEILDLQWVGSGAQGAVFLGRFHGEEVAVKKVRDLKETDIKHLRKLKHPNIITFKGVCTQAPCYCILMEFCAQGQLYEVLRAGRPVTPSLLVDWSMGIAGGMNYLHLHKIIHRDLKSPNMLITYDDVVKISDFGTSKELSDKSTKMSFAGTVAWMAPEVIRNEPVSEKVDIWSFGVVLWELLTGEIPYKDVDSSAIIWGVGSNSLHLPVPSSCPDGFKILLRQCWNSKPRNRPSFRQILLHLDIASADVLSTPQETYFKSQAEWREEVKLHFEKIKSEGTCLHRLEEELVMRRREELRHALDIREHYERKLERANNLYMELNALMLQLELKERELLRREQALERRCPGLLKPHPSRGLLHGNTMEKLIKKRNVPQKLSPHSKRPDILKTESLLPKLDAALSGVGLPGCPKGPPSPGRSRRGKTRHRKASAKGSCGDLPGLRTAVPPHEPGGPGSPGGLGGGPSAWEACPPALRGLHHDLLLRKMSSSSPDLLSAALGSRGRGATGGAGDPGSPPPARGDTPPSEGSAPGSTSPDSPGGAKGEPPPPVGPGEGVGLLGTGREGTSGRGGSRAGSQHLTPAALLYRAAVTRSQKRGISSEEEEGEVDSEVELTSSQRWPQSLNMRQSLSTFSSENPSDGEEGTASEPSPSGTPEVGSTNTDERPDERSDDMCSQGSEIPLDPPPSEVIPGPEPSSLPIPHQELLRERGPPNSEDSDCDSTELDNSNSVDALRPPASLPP
As to the kind of experiment: KINOMEscan panel screen. The format is binding. The following applies: read-out: Percent Control(%).

Assay [24] has as its target T21, LZK (Homo sapiens, UniProt O43283).
T21 construct: purchased DiscoveRx KINOMEscan (Ambit Biosciences)
As to the kind of experiment: KINOMEscan panel screen. It counts as binding. The following applies: read-out: Percent Control(%).

For assay [25], the target named is T22, ROCK2 (Homo sapiens, UniProt O75116).
T22 construct: purchased DiscoveRx KINOMEscan (Ambit Biosciences)
As to the kind of experiment: KINOMEscan panel screen. The format is binding. The following applies: read-out: Percent Control(%).

In assay [26] the target is T23, CDKL5 (Homo sapiens, UniProt O76039).
T23 construct: purchased DiscoveRx KINOMEscan (Ambit Biosciences)
As to the kind of experiment: KINOMEscan panel screen. It counts as binding. The following applies: read-out: Percent Control(%).

The target of assay [27] is T24, AURKC (Homo sapiens, UniProt Q9UQB9).
T24 construct: purchased DiscoveRx KINOMEscan (Ambit Biosciences)
Nature of the assay: KINOMEscan panel screen. It counts as binding. The following applies: read-out: Percent Control(%).

Assay [28] concerns MYC, CCND1, NKD1 transcripts in STF3a cells. As to the kind of experiment: Real-time qPCR of β-catenin target genes in STF3a cells. It counts as cell-based. The following applies: 24 h. Background: In qPCR the cycle at which signal appears reflects the starting amount.
Assay [29] addresses T25, BLK (Homo sapiens, UniProt P51451).
T25 construct: purchased DiscoveRx KINOMEscan (Ambit Biosciences)
Nature of the assay: KINOMEscan panel screen. The format is binding. The following applies: read-out: Percent Control(%).

In assay [30] the target is T26, p38-gamma (Homo sapiens, UniProt P53778).
T26 construct: purchased DiscoveRx KINOMEscan (Ambit Biosciences)
Nature of the assay: KINOMEscan panel screen. It counts as binding. The following applies: read-out: Percent Control(%).

In assay [31] the target is T27, DYRK2 (Homo sapiens, UniProt Q92630).
T27 construct: purchased DiscoveRx KINOMEscan (Ambit Biosciences)
As to the kind of experiment: KINOMEscan panel screen. It counts as binding. The settings on record: read-out: Percent Control(%).

Assay [32] has as its target T28, NEK6 (Homo sapiens, UniProt Q9HC98).
T28 construct: purchased DiscoveRx KINOMEscan (Ambit Biosciences)
Nature of the assay: KINOMEscan panel screen. It counts as binding. The settings on record: read-out: Percent Control(%).

T1 sequence (Q13177 whole entry): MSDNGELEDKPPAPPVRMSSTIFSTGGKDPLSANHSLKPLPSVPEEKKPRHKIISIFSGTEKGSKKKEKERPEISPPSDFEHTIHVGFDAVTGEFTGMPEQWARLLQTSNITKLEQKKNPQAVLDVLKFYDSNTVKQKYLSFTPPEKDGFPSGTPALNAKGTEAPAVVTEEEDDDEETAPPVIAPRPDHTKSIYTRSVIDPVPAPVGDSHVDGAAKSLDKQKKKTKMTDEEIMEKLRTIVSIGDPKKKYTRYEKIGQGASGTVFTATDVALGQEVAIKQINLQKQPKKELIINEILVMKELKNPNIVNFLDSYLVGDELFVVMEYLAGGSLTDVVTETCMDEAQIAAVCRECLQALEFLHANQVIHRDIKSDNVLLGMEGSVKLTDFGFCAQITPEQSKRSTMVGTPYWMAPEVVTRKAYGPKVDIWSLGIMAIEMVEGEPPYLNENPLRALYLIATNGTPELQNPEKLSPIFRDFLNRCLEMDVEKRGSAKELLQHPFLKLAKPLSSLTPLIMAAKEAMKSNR
T21 sequence (O43283 whole entry): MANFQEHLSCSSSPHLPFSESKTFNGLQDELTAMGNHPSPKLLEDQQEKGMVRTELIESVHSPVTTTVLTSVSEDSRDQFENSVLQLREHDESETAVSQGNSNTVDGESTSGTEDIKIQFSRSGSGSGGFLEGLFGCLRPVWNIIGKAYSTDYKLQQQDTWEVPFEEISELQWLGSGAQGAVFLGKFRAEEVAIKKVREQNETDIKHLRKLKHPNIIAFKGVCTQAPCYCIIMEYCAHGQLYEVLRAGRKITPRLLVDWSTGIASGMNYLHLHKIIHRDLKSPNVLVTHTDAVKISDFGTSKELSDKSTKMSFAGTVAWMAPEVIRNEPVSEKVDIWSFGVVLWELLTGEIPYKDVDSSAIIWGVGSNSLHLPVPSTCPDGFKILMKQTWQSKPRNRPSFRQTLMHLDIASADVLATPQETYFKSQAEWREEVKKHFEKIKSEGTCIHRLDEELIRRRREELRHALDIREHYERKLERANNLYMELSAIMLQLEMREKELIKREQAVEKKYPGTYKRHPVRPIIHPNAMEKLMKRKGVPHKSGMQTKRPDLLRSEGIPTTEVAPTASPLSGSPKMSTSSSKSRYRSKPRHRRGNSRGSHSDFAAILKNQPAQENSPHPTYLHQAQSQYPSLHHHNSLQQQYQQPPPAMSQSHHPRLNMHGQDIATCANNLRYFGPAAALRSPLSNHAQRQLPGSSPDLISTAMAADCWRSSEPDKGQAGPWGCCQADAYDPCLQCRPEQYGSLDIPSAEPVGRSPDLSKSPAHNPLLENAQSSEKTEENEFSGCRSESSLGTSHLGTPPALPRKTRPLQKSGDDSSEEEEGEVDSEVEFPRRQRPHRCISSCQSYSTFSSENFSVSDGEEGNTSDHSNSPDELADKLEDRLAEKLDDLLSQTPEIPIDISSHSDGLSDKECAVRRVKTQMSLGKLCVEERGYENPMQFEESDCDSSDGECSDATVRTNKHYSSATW
T18 sequence (P00519 whole entry): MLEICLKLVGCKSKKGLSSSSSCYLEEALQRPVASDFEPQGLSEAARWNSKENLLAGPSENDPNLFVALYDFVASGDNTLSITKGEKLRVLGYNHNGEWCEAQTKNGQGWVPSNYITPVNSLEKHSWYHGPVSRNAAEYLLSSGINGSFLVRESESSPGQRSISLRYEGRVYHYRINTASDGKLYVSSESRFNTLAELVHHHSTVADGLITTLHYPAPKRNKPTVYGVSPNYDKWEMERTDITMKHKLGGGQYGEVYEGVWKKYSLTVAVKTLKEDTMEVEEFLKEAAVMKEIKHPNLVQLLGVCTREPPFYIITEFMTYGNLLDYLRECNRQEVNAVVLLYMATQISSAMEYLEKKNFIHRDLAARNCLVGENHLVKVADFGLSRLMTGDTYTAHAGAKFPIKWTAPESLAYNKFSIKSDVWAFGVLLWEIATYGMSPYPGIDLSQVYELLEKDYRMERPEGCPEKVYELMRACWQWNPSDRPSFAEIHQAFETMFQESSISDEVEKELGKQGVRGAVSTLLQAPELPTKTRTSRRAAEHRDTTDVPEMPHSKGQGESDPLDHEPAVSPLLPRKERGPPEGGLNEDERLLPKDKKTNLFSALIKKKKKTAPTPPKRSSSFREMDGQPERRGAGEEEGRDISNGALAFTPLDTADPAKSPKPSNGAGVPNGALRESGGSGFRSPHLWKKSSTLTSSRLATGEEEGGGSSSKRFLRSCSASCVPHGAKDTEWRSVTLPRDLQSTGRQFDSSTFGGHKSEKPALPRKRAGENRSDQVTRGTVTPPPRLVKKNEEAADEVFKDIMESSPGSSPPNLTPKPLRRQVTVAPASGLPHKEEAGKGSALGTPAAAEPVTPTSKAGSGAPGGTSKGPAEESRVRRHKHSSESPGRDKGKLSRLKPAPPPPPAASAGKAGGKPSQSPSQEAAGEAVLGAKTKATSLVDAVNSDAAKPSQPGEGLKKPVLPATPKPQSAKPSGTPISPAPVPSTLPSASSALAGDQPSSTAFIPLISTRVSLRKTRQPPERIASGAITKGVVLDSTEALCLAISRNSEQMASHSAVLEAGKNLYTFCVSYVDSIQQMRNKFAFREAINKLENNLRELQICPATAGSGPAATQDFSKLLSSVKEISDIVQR
T8 sequence (O75747 whole entry): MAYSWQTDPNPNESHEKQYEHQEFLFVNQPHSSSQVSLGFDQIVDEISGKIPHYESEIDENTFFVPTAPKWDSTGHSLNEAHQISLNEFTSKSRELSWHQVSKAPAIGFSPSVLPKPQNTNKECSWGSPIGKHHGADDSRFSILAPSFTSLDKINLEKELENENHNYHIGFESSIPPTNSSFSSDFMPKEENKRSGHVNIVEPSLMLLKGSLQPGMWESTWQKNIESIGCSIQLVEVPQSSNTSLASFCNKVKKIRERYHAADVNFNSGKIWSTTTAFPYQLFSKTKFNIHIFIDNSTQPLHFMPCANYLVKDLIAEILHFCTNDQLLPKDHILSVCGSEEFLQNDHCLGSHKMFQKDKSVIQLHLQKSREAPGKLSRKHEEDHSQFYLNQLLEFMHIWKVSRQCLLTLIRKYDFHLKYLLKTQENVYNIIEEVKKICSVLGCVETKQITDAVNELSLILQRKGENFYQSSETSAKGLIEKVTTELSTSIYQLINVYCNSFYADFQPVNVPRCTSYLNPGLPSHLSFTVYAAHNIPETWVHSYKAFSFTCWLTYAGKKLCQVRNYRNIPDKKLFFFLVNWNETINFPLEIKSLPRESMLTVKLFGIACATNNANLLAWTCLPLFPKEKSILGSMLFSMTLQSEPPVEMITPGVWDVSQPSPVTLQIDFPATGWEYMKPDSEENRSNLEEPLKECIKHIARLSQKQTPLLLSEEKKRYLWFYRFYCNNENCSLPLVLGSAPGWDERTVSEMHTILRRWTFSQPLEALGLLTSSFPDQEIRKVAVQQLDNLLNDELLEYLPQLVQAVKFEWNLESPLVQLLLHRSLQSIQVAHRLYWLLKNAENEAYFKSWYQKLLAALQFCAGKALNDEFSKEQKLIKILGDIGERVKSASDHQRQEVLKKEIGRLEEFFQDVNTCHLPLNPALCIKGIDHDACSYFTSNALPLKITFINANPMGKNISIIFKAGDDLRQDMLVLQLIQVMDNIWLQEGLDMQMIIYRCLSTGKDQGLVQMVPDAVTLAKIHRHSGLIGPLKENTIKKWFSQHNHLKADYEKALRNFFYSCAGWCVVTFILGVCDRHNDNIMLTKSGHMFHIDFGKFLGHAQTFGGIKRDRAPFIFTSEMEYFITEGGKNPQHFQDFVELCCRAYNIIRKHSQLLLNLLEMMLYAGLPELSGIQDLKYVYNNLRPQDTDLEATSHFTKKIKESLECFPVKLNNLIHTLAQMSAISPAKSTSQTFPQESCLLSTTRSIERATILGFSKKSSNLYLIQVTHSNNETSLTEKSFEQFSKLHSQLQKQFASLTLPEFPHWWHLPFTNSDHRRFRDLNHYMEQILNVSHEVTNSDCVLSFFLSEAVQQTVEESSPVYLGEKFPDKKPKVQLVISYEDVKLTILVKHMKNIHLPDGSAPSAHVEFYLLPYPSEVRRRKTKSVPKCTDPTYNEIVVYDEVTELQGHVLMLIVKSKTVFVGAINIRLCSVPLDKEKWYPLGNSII
T4 sequence (Q9Y616 whole entry): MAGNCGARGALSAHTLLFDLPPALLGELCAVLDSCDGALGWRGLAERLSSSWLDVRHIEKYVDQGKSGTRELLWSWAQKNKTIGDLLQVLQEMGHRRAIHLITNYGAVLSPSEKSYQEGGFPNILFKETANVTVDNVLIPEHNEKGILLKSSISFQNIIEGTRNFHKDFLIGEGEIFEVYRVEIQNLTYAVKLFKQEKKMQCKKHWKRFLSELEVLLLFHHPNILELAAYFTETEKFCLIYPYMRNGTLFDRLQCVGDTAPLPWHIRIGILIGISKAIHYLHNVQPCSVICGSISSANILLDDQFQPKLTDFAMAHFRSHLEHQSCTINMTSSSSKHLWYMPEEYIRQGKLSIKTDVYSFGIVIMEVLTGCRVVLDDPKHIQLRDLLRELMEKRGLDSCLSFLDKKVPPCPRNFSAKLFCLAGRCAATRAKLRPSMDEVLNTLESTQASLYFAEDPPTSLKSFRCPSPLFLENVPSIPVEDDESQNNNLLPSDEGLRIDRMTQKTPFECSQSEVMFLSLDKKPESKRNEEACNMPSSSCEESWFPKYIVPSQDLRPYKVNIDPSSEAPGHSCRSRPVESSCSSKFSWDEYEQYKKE
T13 sequence (Q96GD4 whole entry): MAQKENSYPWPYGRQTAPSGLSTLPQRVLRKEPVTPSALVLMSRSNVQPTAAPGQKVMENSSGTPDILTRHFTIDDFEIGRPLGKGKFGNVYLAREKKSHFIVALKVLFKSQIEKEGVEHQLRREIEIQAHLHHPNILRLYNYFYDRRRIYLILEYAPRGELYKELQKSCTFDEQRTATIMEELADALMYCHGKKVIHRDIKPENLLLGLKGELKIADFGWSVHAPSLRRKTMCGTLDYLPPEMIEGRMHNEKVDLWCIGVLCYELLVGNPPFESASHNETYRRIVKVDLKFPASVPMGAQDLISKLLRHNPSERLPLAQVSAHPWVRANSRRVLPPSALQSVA

By IC50 is commonly meant the midpoint of a concentration-inhibition curve. `O=C(Nc1ccc(Oc2ncnc3[nH]ncc23)cc1)Nc1ccc(Cl)c(C(F)(F)F)c1` [Compound 1, 1-(4-(1H-pyrazolo[3,4-d]pyrimidin-4-yloxy)phenyl)-3-(4-chloro-3-(trifluoromethyl)phenyl)urea]: the IC50 in assay [1] was > 10 µM.

By Kd is commonly meant the free concentration of one partner at which half of the binding sites on the other are occupied at equilibrium, for simple one-to-one binding. Lower therefore signals a tighter complex. `CC(C)(C)c1cc(NC(=O)Nc2ccc(Oc3ncnc4[nH]ncc34)c(F)c2)no1` [SKLB-677, 1-(4-(1H-pyrazolo[3,4-d]pyrimidin-4-yloxy)-3-fluorophenyl)-3-(5-tert-butylisoxazol-3-yl)urea]: the remaining binding at 10 µM in [2] is 48%; in assay [3], 100%; in assay [4] it was 52%; in assay [5], 17%; in [7], 56%; in [8] it was 98%. Moreover, the remaining binding at 10 µM in [9] was found to be 100%; in assay [10], 52%; in assay [12] it was 0.55%; in assay [13], 97%; in [14] it was 9.6%; in assay [15], 2.6%. For the same compound, the remaining binding at 10 µM in [17] was 84%; in assay [18] it was 0.85%; in [19] it was 100%; in assay [20], 88%; in assay [21], 3.2%; in assay [22] it was 80%. Also, the remaining binding at 10 µM stood at 86% in [23]; 93% in assay [24]; 66% in assay [25]; 5% in assay [26]; 1.4% in [27]; 0.95% in assay [29]. The remaining binding at 10 µM in assay [30] amounted to 3.7%; in assay [31] it was 34%; in [32], 99%. The “Percent Control(%)” value in assay [6] was 0.05%. The IC50 in [11] amounted to 8.03 µM. Also, the Kd in assay [16] was > 10 µM. Further, the “MYC, CCND1, and NKD1 transcripts” value in assay [28] was “reduced”.
